The subject of the test is normal esophageal epithelium cell line EACN42. As to the kind of experiment: FDA library drug sensitivity testing (CellTiter-Glo, 72 h), normal control cells. Conditions: 72 h; for EC50: cell viability (ATP), max test concentration 10μM. More on the design: key to DSS: modified drug sensitivity score (DSSmod) from dose-response curve fit. The format is cell-based, human. Here is the method: The normal esophageal epithelium cell line EACN42 was established in the Capobianco laboratory. The cell lines was derived from human normal epithelium and immortalized using HPV E6-E7.
Drug sensitivity testing (DST) was performed as described previously. […] Individual drugs were dissolved in 100% DMSO and tested in duplicates starting at a maximal test concentration of 10μM then over a 20,000-fold concentration range to generate dose response curves. Wells with assay buffer containing DMSO served as negative controls. 1000 exponentially growing cells were seeded per well in 384-well micro-titer plates and incubated in the presence of compounds in a humidified environment at 37°C and 5% CO2. After 72 hours of treatment, cell viability was assessed by measuring ATP levels via bioluminescence (CellTiter-Glo, Promega) according to manufactures recommendations. Interpretation of curve parameters was performed according to the modified drug sensitivity scoring (DSSmod) function developed by Swords et al. […] Given in this way, the sDSSmod incorporated information on each drug’s potency, efficacy, effect range and therapeutic index, making it possible to prioritize compounds over multiple parameters using a single numerical metric. […] All calculations and scoring routines are implemented in MatLab and additional curve fitting and statistical analyses are performed in GraphPad prism.
On the technique in general: ATP-based viability assays read luminescence as a measure of living cells.

Where [1] appears, read: drug sensitivity score, EACN42 normal esophageal cells.
Where [2] appears, read: Homo sapiens, EACN42 normal esophageal cells.

Where a name gives a salt, the structure may show the parent alone.

As a reminder, the EC50 is the concentration that produces a half-maximal response.

Molecule `O=C1CCC(N2C(=O)c3ccccc3C2=O)C(=O)N1` (centres unmarked) [Thalidomide] showed a DSS under setting [1] of 0.

In turn, `N#Cc1ccc(C(c2ccc(C#N)cc2)n2cncn2)cc1` [Letrozole] yielded an EC50 under setting [2] of 60 nM. This molecule also showed a DSS under setting [1] of 0.

Under setting [1], `O=NN(CCCl)C(=O)NC1CCCCC1` [Lomustine] displayed a DSS of 0.

`C[C@]12CC[C@@H]3c4ccc(O)cc4CC[C@H]3[C@@H]1CC[C@@H]2O` [Estradiol] showed a DSS under setting [1] of 0.

Consider `CC[C@@H]1/C=C(\C)C[C@H](C)C[C@H](OC)[C@H]2O[C@@](O)(C(=O)C(=O)N3CCCC[C@H]3C(=O)O[C@H](/C(C)=C/[C@@H]3CC[C@H](Cl)[C@H](OC)C3)[C@H](C)[C@@H](O)CC1=O)[C@H](C)C[C@@H]2OC` [Pimecrolimus], for which it took 5300 nM to reach a half-maximal effect under setting [2] (EC50). Moreover, the DSS under setting [1] came to 1.11.

In turn, `CCCCNC(=O)NS(=O)(=O)c1ccc(C)cc1` [Tolbutamide] yielded an EC50 under setting [2] of 60 nM. Under setting [1], this molecule returned a DSS of 0.

Take `CC1=C(CC(=O)O)c2cc(F)ccc2/C1=C\c1ccc([S+](C)[O-])cc1` (centres unmarked) [Sulindac]: a half-maximal effect under setting [2] (EC50) was put at 50 nM. Under setting [1], this molecule yielded a DSS of 0.

Regarding `Cc1cccc(N(C)C(=S)Oc2ccc3ccccc3c2)c1` [Tolnaftate], the DSS under setting [1] was found to be 0.

As to `Cc1ccc(NC(=O)c2ccc(CN3CCN(C)CC3)cc2)cc1Nc1nc(-c2cccnc2)cs1` [Masitinib], under setting [1], the DSS came to 0.

Molecule `COc1ccc2c(c1OC)C(=O)O[C@@H]2[C@H]1c2c(cc3c(c2OC)OCO3)CCN1C` [Noscapine HCl] yielded a DSS under setting [1] of 0.

`CC/C(=C(\c1ccccc1)c1ccc(OCCN(C)C)cc1)c1ccccc1` [Tamoxifen Citrate]: the DSS under setting [1] is given as 0.

Regarding `O=C1[C@H](CC[C@H](O)c2ccc(F)cc2)[C@@H](c2ccc(O)cc2)N1c1ccc(F)cc1` [Ezetimibe], the DSS under setting [1] is on record as 0.

With `N#CC1(c2ccc(NC(=O)c3cccnc3NCc3ccncc3)cc2)CCCC1` [Apatinib], the EC50 under setting [2] is 50 nM. Under setting [1], the DSS is listed as 0.

`NC(=O)NO` [Hydroxyurea] showed a DSS under setting [1] of 0.

As to `CCc1ccc(CCOc2ccc(CC3SC(=O)NC3=O)cc2)nc1` (centres unmarked) [Pioglitazone], the DSS under setting [1] is given as 0.

`CN(CCOc1ccc(CC2SC(=O)NC2=O)cc1)c1ccccn1` (centres unmarked) [Rosiglitazone] yielded a DSS under setting [1] of 0.

Under setting [2], `Nc1cccc2c1C(=O)N(C1CCC(=O)NC1=O)C2=O` (centres unmarked) [Pomalidomide] yielded an EC50 of 0.158 nM. The molecule also registered a DSS under setting [1] of 0.

With `CN(N=O)C(=O)N[C@H]1C(O)O[C@H](CO)[C@@H](O)[C@@H]1O` (mixture of isomers) [Streptozotocin], the DSS under setting [1] turned out to be 0.

`CNC(=O)c1ccc(N2C(=S)N(c3ccc(C#N)c(C(F)(F)F)c3)C(=O)C2(C)C)cc1F` [Enzalutamide] had a DSS under setting [1] of 0.

Molecule `CC(=O)OCC(CCn1cnc2cnc(N)nc21)COC(C)=O` [Famciclovir] came in with an EC50 under setting [2] of 1120 nM. Under setting [1], this molecule displayed a DSS of 0.

The molecule `CC(=O)O[C@@]12CO[C@@H]1C[C@H](O)[C@@]1(C)C(=O)[C@H](O)C3=C(C)[C@@H](O)C[C@@](O)([C@@H](OC(=O)c4ccccc4)[C@H]21)C3(C)C` [10-DAB] registered an EC50 (EACN42 normal esophageal cells) of 5480 nM. Also, under setting [1], the DSS was determined as 0.01.

Molecule `C[C@@]12C[C@@]3(O)O[C@@H](O1)[C@]1(COC(=O)c4ccccc4)[C@H]3C[C@@]12O[C@@H]1O[C@H](CO)[C@@H](O)[C@H](O)[C@H]1O` [Paeoniflorin] had a DSS under setting [1] of 0.

With `O=C(O)CCCN1CCC(O[C@@H](c2ccc(Cl)cc2)c2ccccn2)CC1.O=S(=O)(O)c1ccccc1` [Bepotastine Besilate], under setting [1], the DSS was found to be 0.

Consider `O=C(O)C1=CO[C@@H](O[C@@H]2O[C@H](CO)[C@@H](O)[C@H](O)[C@H]2O)[C@@H]2C(CO)=CC[C@H]12` [Geniposidic acid], for which the DSS under setting [1] is reported as 0.

Consider `Cl.Cn1c(CCCC(=O)O)nc2cc(N(CCCl)CCCl)ccc21` [Bendamustine HCL], for which the DSS under setting [1] came to 0.

For the molecule `C#Cc1cccc(Nc2ncnc3cc(OCCOC)c(OCCOC)cc23)c1` [Erlotinib HCl], the DSS under setting [1] was 0.

In the case of `CC(=O)OCC(=O)[C@@]1(O)[C@H](C)C[C@H]2[C@@H]3CCC4=CC(=O)C=C[C@]4(C)[C@@]3(F)[C@@H](O)C[C@@]21C` [Dexamethasone acetate], under setting [1], the DSS was determined as 0.

Turning to `CC(C)C(=O)Nc1ccc([N+](=O)[O-])c(C(F)(F)F)c1` [Flutamide], the DSS under setting [1] came to 0.

On to `CC(=O)O[C@]1(C(C)=O)CC[C@H]2[C@@H]3C=C(C)C4=CC(=O)CC[C@]4(C)[C@H]3CC[C@@]21C` [Megestrol Acetate], for which the DSS under setting [1] is given as 0.

`C=C1C[C@@H]2[C@H](CC[C@]3(C)C(=O)CC[C@@H]23)[C@@]2(C)C=CC(=O)C=C12` [Exemestane] registered a DSS of 0.

`CC(C)C[C@H](NC(=O)[C@@H](O)[C@H](N)Cc1ccccc1)C(=O)O` [Ubenimex]: the DSS under setting [1] turned out to be 0.

Under setting [1], `CC(=O)O[C@]1(C(C)=O)CC[C@H]2[C@@H]3C[C@H](C)C4=CC(=O)CC[C@]4(C)[C@H]3CC[C@@]21C` [Medroxyprogesterone acetate] showed a DSS of 0.

Under setting [1], `CC[C@H]1OC(=O)[C@H](C)[C@@H](O[C@H]2C[C@@](C)(OC)[C@@H](O)[C@H](C)O2)[C@H](C)[C@@H](O[C@@H]2O[C@H](C)C[C@H](N(C)C)[C@H]2O)[C@](C)(O)C[C@@H](C)CN(C)[C@H](C)[C@@H](O)[C@]1(C)O` [Azithromycin] had a DSS of 0.

Turning to `COc1c2ccoc2cc2oc(=O)ccc12` [Bergapten], the concentration giving a half-maximal response (EC50) under setting [2] worked out at 50 nM. This molecule also gave a DSS under setting [1] of 0.

Turning to `CNC[C@H](O)c1ccc(O)c(O)c1` [Epinephrine bitartrate], under setting [1], the DSS is given as 0.

`CN(C)/N=N/c1[nH]cnc1C(N)=O` [Dacarbazine] returned a DSS under setting [1] of 0.

`CCOC(=O)C1=C[C@]2(CC)CCCN3CCc4c(n1c1ccccc41)[C@@H]32` [Vinpocetine] displayed a DSS under setting [1] of 0.

Turning to `CC(=O)OCC(=O)[C@@]1(O)CC[C@H]2[C@@H]3CCC4=CC(=O)CC[C@]4(C)[C@H]3C(=O)C[C@@]21C` [Cortisone acetate], the DSS under setting [1] came out at 0.

With Maraviroc, the “treatment response in words” value (EACN42 normal esophageal cells) was “low or no activity”. In addition, under setting [1], the DSS is given as 0.

The molecule `Nc1ncnc2[nH]cnc12` [Adenine] displayed a DSS under setting [1] of 0.

Consider `O=P1(NCCCl)OCCCN1CCCl` (centres unmarked) [Ifosfamide], for which the DSS under setting [1] stood at 0.

`Nc1ncnc2nc[nH]c12.Nc1ncnc2nc[nH]c12.O=S(=O)(O)O` [Adenine sulfate] had a concentration for a half-maximal effect (EC50) (EACN42 normal esophageal cells) of 250 nM. Also, the DSS under setting [1] was found to be 0.

As for `CS(=O)(=O)OCCCCOS(C)(=O)=O` [Busulfan], the DSS under setting [1] stood at 0.

In the case of `C=C1/C(=C\C=C2/CCC[C@]3(C)[C@@H]([C@H](C)/C=C/[C@H](C)C(C)C)CC[C@@H]23)C[C@@H](O)C[C@@H]1O` [Doxercalciferol], the midpoint of the response under setting [2], the EC50, lay at 7 nM. For the same molecule, under setting [1], the DSS is reported as 0.

The molecule `CC#C[C@]1(O)CC[C@H]2[C@@H]3CCC4=CC(=O)CCC4=C3[C@@H](c3ccc(N(C)C)cc3)C[C@@]21C` [Mifepristone] had a DSS under setting [1] of 0.

Take `Nc1cc(C(Cl)=C(Cl)Cl)c(S(N)(=O)=O)cc1S(N)(=O)=O` [Clorsulon]: under setting [1], the DSS stood at 0.

For the molecule `CC[C@]1(O)C[C@@H]2CN(CCc3c([nH]c4ccccc34)[C@@](C(=O)OC)(c3cc4c(cc3OC)N(C)[C@H]3[C@@](O)(C(=O)OC)[C@H](OC(C)=O)[C@]5(CC)C=CCN6CC[C@]43[C@@H]65)C2)C1` [Vinblastine], the 50% effective concentration (EC50) under setting [2] is above 10000 nM. The DSS under setting [1] amounted to 1.63.

Under setting [2], `CCC[C@@H]1C[C@@H](C(=O)N[C@@H]([C@H]2O[C@H](SC)[C@H](O)[C@@H](O)[C@H]2O)[C@@H](C)O)N(C)C1` [Lincomycin hydrochloride] yielded an EC50 of 990 nM. For the same molecule, the DSS under setting [1] is recorded as 0.

As to `Cc1ccc(NC(=O)c2ccc(CN3CCN(C)CC3)cc2)cc1Nc1nccc(-c2cccnc2)n1` [Imatinib], under setting [1], the DSS is given as 0.

Under setting [2], `CNC(=O)c1cc(Oc2ccc(NC(=O)Nc3ccc(Cl)c(C(F)(F)F)c3)c(F)c2)ccn1` [Regorafenib] gave a concentration giving a half-maximal response (EC50) above 10000 nM. The DSS under setting [1] stood at 1.85.

Take `Cc1ccc(-c2cc(C(F)(F)F)nn2-c2ccc(S(N)(=O)=O)cc2)cc1` [Celecoxib]: the DSS under setting [1] is on record as 0.

In the case of `CCCC(CCC)C(=O)O` [Valproic acid sodium salt], the response under setting [2] was half-maximal at 2000 nM (EC50). This molecule returned a DSS under setting [1] of 0.

Under setting [2], `CC(C)Cn1cnc2c(N)nc3ccccc3c21` [Imiquimod] displayed a half-maximal effective concentration (EC50) of 2000 nM. Under setting [1], the DSS is 0.

Regarding `CC1COc2c(N3CCN(C)CC3)c(F)cc3c(=O)c(C(=O)O)cn1c23` (centres unmarked) [Ofloxacin], the DSS under setting [1] was 0.

For `NC(=O)c1ncn([C@@H]2O[C@H](CO)[C@@H](O)[C@H]2O)c1O` [Mizoribine], under setting [2], it took 6 nM to reach a half-maximal effect (EC50). In addition, the DSS under setting [1] turned out to be 0.

`Cl.Cl.Fc1ccc(C(c2ccc(F)cc2)N2CCN(C/C=C/c3ccccc3)CC2)cc1` [Flunarizine 2HCl] registered a DSS under setting [1] of 0.03.

As for `CCN1CCN(c2cc(-c3ccc(F)cc3)c3c(n2)CCCCCC3)CC1` [Blonanserin], the half-maximal effective concentration (EC50) under setting [2] worked out at 40 nM. Under setting [1], this molecule yielded a DSS of 0.

In the case of `CN(C)c1nc(N(C)C)nc(N(C)C)n1` [Altretamine], the DSS under setting [1] amounted to 0.

The values are drawn from publication PMC6136712, “Ex vivo drug sensitivity testing as a means for drug repurposing in esophageal adenocarcinoma” (PLoS ONE, 2018).
